Results on 23 molecules are retold here after patent publication US20090298820A1, “3-SUBSTITUTED-1H-PYRROLO[2,3-B]PYRIDINE AND 3-SUBSTITUTED-1H-PYRROLO[3,2-B]PYRIDINE COMPOUNDS, THEIR USE AS MTOR KINASE AND PI3 KINASE INHIBITORS, AND THEIR SYNTHESES” (Wyeth, priority 2008, published 2009).

Common to all, as to format: biochemical
One test has as its target mTOR (Homo sapiens, UniProt P42345). Nature of the test: mTOR enzyme assay (DELFIA format, His6-S6K substrate).
The next test has as its target PI3Kγ (Homo sapiens, UniProt P48736). Nature of the test: PI3K-gamma fluorescence polarization assay. The settings on record: read-out: PI3Kγ Median IC50. (Fluorescence polarisation rises when a labelled molecule tumbles more slowly, as on binding a larger partner.)
The next test addresses PI3Kα (Homo sapiens, UniProt P42336). Nature of the test: PI3K-alpha fluorescence polarization assay. The settings on record: read-out: PI3Kα Median IC50.
Setting [1] is: read-out: mTOR Kinase Median IC50.

Each structure is given as a SMILES string. pIC50: −log10 of the molar value. Like-named read-outs stand apart in the source and are kept apart here.

A word on the pIC50: it is −log10 of the IC50, conventionally taken in molar units.

PI3Kα, sequence (P42336 whole entry, species assumed): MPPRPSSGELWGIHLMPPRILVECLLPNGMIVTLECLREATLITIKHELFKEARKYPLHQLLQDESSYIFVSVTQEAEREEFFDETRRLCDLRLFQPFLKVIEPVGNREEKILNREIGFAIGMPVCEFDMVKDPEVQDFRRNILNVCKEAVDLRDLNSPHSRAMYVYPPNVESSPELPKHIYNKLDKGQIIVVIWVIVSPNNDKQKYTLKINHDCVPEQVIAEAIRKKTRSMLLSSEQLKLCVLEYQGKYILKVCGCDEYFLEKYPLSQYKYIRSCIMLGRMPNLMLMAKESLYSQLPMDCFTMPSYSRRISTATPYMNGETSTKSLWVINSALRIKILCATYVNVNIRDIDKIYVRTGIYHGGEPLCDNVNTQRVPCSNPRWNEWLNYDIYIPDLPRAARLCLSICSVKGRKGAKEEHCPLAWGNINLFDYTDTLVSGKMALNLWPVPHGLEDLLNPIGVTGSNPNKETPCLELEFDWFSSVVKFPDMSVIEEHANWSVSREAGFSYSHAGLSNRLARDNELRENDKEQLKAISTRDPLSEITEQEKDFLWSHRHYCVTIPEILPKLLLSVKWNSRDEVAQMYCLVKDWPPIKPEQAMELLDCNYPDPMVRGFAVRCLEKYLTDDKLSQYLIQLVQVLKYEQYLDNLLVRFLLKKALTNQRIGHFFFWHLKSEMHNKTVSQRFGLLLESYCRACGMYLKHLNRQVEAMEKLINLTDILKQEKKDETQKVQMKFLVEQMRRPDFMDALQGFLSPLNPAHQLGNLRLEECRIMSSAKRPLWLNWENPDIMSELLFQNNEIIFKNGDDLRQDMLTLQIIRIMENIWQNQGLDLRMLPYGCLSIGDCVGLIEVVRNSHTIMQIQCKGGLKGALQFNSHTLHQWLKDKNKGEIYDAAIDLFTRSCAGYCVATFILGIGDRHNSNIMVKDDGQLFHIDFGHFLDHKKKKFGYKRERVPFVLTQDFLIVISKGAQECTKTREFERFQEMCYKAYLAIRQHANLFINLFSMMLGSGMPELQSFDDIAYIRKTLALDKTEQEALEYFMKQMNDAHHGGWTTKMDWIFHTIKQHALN
PI3Kα, sequence (P27986 whole entry partner, species assumed): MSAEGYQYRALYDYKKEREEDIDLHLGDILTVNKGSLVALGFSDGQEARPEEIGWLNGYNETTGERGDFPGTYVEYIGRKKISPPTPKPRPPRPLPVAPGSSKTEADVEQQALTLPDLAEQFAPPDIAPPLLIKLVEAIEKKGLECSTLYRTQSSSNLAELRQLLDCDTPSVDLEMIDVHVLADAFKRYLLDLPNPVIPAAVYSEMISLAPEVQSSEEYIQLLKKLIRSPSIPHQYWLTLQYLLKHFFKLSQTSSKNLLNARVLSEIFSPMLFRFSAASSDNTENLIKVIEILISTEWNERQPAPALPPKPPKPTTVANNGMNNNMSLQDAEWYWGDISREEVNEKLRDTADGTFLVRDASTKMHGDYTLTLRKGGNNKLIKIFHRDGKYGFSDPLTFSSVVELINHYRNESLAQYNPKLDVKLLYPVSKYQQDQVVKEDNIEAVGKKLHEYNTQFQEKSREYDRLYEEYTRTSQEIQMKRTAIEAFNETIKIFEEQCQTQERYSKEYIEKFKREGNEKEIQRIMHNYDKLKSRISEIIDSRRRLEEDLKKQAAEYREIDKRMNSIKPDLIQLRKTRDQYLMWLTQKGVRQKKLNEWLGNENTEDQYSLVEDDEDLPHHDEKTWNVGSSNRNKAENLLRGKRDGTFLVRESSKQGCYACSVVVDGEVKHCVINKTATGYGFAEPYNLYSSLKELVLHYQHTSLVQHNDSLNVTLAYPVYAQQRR
PI3Kγ, sequence (P48736 whole entry, species assumed): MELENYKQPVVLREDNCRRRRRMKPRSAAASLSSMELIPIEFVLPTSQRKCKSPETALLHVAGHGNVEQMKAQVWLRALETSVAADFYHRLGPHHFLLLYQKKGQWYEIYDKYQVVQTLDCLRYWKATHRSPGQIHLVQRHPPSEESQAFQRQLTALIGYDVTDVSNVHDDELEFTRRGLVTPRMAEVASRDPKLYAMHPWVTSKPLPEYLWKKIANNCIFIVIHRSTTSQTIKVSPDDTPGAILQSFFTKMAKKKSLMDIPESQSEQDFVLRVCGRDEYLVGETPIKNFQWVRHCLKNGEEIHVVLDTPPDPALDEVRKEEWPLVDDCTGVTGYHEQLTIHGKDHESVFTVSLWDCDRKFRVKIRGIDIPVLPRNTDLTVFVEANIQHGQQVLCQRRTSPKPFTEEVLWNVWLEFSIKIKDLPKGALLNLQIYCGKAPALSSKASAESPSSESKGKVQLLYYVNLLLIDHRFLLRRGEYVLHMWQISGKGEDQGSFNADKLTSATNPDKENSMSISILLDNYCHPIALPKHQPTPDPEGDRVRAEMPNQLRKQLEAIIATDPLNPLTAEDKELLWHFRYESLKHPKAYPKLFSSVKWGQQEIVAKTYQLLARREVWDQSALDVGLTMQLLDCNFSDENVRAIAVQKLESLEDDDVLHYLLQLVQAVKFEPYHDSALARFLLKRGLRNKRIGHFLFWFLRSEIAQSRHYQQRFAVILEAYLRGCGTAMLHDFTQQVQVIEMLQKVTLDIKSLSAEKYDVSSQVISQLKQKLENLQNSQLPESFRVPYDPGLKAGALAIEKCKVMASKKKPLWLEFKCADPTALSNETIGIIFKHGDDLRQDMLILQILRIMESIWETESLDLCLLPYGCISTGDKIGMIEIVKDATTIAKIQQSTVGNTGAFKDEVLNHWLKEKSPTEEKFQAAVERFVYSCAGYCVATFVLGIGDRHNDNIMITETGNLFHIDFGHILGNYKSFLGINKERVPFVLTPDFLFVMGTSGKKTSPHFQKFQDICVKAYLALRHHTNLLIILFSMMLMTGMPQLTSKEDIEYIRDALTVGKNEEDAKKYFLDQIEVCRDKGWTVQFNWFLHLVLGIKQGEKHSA

Consider `CNC(=O)Nc1ccc2c(c1)C(=O)/C(=C/c1cn(CCN3CCN(C)CC3)c3ncc(OC)cc13)O2` [Compound 120, 1-[(2Z)-2-({5-methoxy-1-[2-(4-methylpiperazin-1-yl)ethyl]-1H-pyrrolo[2,3-b]pyridin-3-yl}methylene)-3-oxo-2,3-dihydro-1-benzofuran-5-yl]-3-methylurea], for which the figures for the pIC50 on mTOR, at PI3Kγ and at PI3Kα were 6.55, 5.62 and 7.46, respectively.

`COc1ccc(-c2ccnc3c2c(/C=C2\Oc4cccc(O)c4C2=O)cn3C)cc1S(=O)(=O)N1CCCCC1` [Compound 123, (2Z)-4-hydroxy-2-({4-[4-methoxy-3-(piperidin-1-ylsulfonyl)phenyl]-1-methyl-1H-pyrrolo[2,3-b]pyridin-3-yl}methylene)-1-benzofuran-3(2H)-one]: the pIC50 was 7.78 on mTOR (setting [1]), 6.81 at PI3Kγ and 7.37 on PI3Kα.

In the case of `CN1CCN(C(=O)c2ccc(-c3ccnc4c3c(/C=C3\Oc5cccc(O)c5C3=O)cn4C)cc2)CC1` [Compound 124, (2Z)-4-hydroxy-2-[(1-methyl-4-{4-[(4-methylpiperazin-1-yl)carbonyl]phenyl}-1H-pyrrolo[2,3-b]pyridin-3-yl)methylene]-1-benzofuran-3(2H)-one], the negative-log IC50 (pIC50) on mTOR (setting [1]) is 9.00; on PI3Kγ, 6.74; at PI3Kα, 7.15.

With `Cn1cc(/C=C2\Oc3cccc(O)c3C2=O)c2c(-c3cccc(O)c3)ccnc21` [Compound 125, (2Z)-4-hydroxy-2-{[4-(3-hydroxyphenyl)-1-methyl-1H-pyrrolo[2,3-b]pyridin-3-yl]methylene}-1-benzofuran-3(2H)-one], the values for the pIC50 on mTOR (setting [1]), on PI3Kγ and at PI3Kα were 7.89, 7.03 and 7.37, respectively.

In the case of `CN1CCOc2cc(-c3ccnc4c3c(/C=C3\Oc5cccc(O)c5C3=O)cn4C)ccc21` [Compound 126, (2Z)-4-hydroxy-2-{[1-methyl-4-(4-methyl-3,4-dihydro-2H-1,4-benzoxazin-7-yl)-1H-pyrrolo[2,3-b]pyridin-3-yl]methylene}-1-benzofuran-3(2H)-one], the negative logarithm of the IC50 (pIC50) at mTOR (setting [1]) is 8.21; at PI3Kγ it was 5.06; on PI3Kα, 6.10.

Consider `Cn1cc(/C=C2\Oc3cccc(O)c3C2=O)c2c(-c3ccc(-c4ccco4)cc3)ccnc21` [Compound 127, (2Z)-2-({4-[4-(2-furyl)phenyl]-1-methyl-1H-pyrrolo[2,3-b]pyridin-3-yl}methylene)-4-hydroxy-1-benzofuran-3(2H)-one], for which the negative logarithm of the IC50 (pIC50) on mTOR (setting [1]) is 8.09; at PI3Kγ it was 6.08; at PI3Kα, 6.97.

Regarding `Cn1cc(/C=C2\Oc3cccc(O)c3C2=O)c2c(-c3ccc(CN4CCOCC4)cc3)ccnc21` [Compound 130, (2Z)-4-hydroxy-2-({1-methyl-4-[4-(morpholin-4-ylmethyl)phenyl]-1H-pyrrolo[2,3-b]pyridin-3-yl}methylene)-1-benzofuran-3(2H)-one], the pIC50 is 8.49 on mTOR (setting [1]), 6.58 at PI3Kγ and 6.81 at PI3Kα.

In the case of `Cn1cc(/C=C2\Oc3cccc(O)c3C2=O)c2c(-c3ccc(N4CCNCC4)cc3)ccnc21` [Compound 135, (2Z)-4-hydroxy-2-{[1-methyl-4-(4-piperazin-1-ylphenyl)-1H-pyrrolo[2,3-b]pyridin-3-yl]methylene}-1-benzofuran-3(2H)-one], the values for the pIC50 at mTOR (setting [1]), on PI3Kγ and on PI3Kα were 8.00, 5.85 and 6.81, respectively.

On to `Cn1cc(/C=C2\Oc3cccc(O)c3C2=O)c2c(-c3ccc(C(=O)N4CCNCC4)cc3)ccnc21` [Compound 136, (2Z)-4-hydroxy-2-({1-methyl-4-[4-(piperazin-1-ylcarbonyl)phenyl]-1H-pyrrolo[2,3-b]pyridin-3-yl}methylene)-1-benzofuran-3(2H)-one], for which the negative logarithm of the IC50 (pIC50) at mTOR (setting [1]) is 8.70; at PI3Kγ, 6.97; on PI3Kα, 7.57.

With `Cn1cc(/C=C2\Oc3cccc(O)c3C2=O)c2c(-c3ccc(F)c(C(=O)Nc4ccccc4)c3)ccnc21` [Compound 137, 2-fluoro-5-{3-[(Z)-(4-hydroxy-3-oxo-1-benzofuran-2(3H)-ylidene)methyl]-1-methyl-1H-pyrrolo[2,3-b]pyridin-4-yl}-N-phenylbenzamide], the pIC50 is 8.31 at mTOR (setting [1]), 6.59 on PI3Kγ and 6.91 at PI3Kα.

Consider `Cn1cc(/C=C2\Oc3cccc(O)c3C2=O)c2c(-c3cccc(C(=O)Nc4ccccc4)c3)ccnc21` [Compound 138, 3-{3-[(Z)-(4-hydroxy-3-oxo-1-benzofuran-2(3H)-ylidene)methyl]-1-methyl-1H-pyrrolo[2,3-b]pyridin-4-yl}-N-phenylbenzamide], for which the pIC50 was 8.11 at mTOR (setting [1]), 5.91 at PI3Kγ and 6.85 on PI3Kα.

For the molecule `Cn1cc(/C=C2\Oc3cccc(O)c3C2=O)c2c(-c3ccc(N4CCCCC4)cc3)ccnc21` [Compound 142, (2Z)-4-hydroxy-2-{[1-methyl-4-(4-piperidin-1-ylphenyl)-1H-pyrrolo[2,3-b]pyridin-3-yl]methylidene}-1-benzofuran-3(2H)-one], the negative-log IC50 (pIC50) at mTOR (setting [1]) was 8.10; on PI3Kγ, < 5.00; at PI3Kα, 5.80.

As for `Cn1cc(/C=C2\Oc3cccc(O)c3C2=O)c2c(-c3ccc(N4CCCC4)cc3)ccnc21` [Compound 143, (2Z)-4-hydroxy-2-{[1-methyl-4-(4-pyrrolidin-1-ylphenyl)-1H-pyrrolo[2,3-b]pyridin-3-yl]methylidene}-1-benzofuran-3(2H)-one], the pIC50 at mTOR (setting [1]) was 7.09; at PI3Kγ, < 5.00; on PI3Kα, 5.88.

Consider `Cn1cc(/C=C2\Oc3cccc(O)c3C2=O)c2c(-c3ccc(C(=O)N4CCN(CCO)CC4)cc3)ccnc21` [Compound 146, (2Z)-4-hydroxy-2-{[4-(4-{[4-(2-hydroxyethyl)piperazin-1-yl]carbonyl}phenyl)-1-methyl-1H-pyrrolo[2,3-b]pyridin-3-yl]methylidene}-1-benzofuran-3(2H)-one], for which the negative-log IC50 (pIC50) was 9.40 on mTOR (setting [1]), 7.00 on PI3Kγ and 7.00 on PI3Kα.

As to `Cn1cc(/C=C2\Oc3cccc(O)c3C2=O)c2c(-c3ccc(C(=O)NCCCO)cc3)ccnc21` [Compound 147, 4-{3-[(Z)-(4-hydroxy-3-oxo-1-benzofuran-2(3H)-ylidene)methyl]-1-methyl-1H-pyrrolo[2,3-b]pyridin-4-yl}-N-(3-hydroxypropyl)benzamide], the pIC50 on mTOR (setting [1]) is 9.22; at PI3Kγ, 7.27; at PI3Kα it was 7.42.

For `COCCNC(=O)c1ccc(-c2ccnc3c2c(/C=C2\Oc4cccc(O)c4C2=O)cn3C)cc1` [Compound 149, 4-{3-[(Z)-(4-hydroxy-3-oxo-1-benzofuran-2(3H)-ylidene)methyl]-1-methyl-1H-pyrrolo[2,3-b]pyridin-4-yl}-N-(2-methoxyethyl)benzamide], the negative logarithm of the IC50 (pIC50) at mTOR (setting [1]) was 8.77; at PI3Kγ it was 7.21; on PI3Kα, 7.32.

For `CN(C)CCNC(=O)c1ccc(-c2ccnc3c2c(/C=C2\Oc4cccc(O)c4C2=O)cn3C)cc1` [Compound 158, N-[2-(dimethylamino)ethyl]-4-{3-[(Z)-(4-hydroxy-3-oxo-1-benzofuran-2(3H)-ylidene)methyl]-1-methyl-1H-pyrrolo[2,3-b]pyridin-4-yl}benzamide], the negative-log IC50 (pIC50) on mTOR (setting [1]) is 8.07; on PI3Kγ, 6.83; at PI3Kα, 6.75.

As to `CN(C)CCOc1cccc2c1C(=O)/C(=C/c1cn(C)c3nccc(-c4ccccc4)c13)O2` [Compound 159, (2Z)-4-[2-(dimethylamino)ethoxy]-2-[(1-methyl-4-phenyl-1H-pyrrolo[2,3-b]pyridin-3-yl)methylidene]-1-benzofuran-3(2H)-one], the negative logarithm of the IC50 (pIC50) on mTOR (setting [1]) was 7.15; on PI3Kγ, 5.38; at PI3Kα it was 5.84.

Take `Cn1cc(/C=C2\Oc3cccc(O)c3C2=O)c2c(N3CC4COC(C3)O4)ccnc21` (stereo not drawn) [Compound 165, (2Z)-2-{[4-(6,8-dioxa-3-azabicyclo[3.2.1]oct-3-yl)-1-methyl-1H-pyrrolo[2,3-b]pyridin-3-yl]methylidene}-4-hydroxy-1-benzofuran-3(2H)-one]: the pIC50 on mTOR (setting [1]) was 8.57; at PI3Kγ, 6.84; on PI3Kα, 7.60.

For `CNC(=O)Nc1ccc2c(c1)C(=O)/C(=C/c1cn(C)c3nccc(-c4ccc(C(=O)N5CCN(CCO)CC5)cc4)c13)O2` [Compound 166, 1-[(2Z)-2-{[4-(4-{[4-(2-hydroxyethyl)piperazin-1-yl]carbonyl}phenyl)-1-methyl-1H-pyrrolo[2,3-b]pyridin-3-yl]methylidene}-3-oxo-2,3-dihydro-1-benzofuran-5-yl]-3-methylurea], the negative-log IC50 (pIC50) is 7.81 on mTOR (setting [1]), 6.46 on PI3Kγ and 6.60 on PI3Kα.

Turning to `CCOC(=O)Nc1ccc2c(c1)C(=O)/C(=C/c1cn(C)c3nccc(N4CCC(C(=O)N(C)C)CC4)c13)O2` [Compound 171, ethyl[(2Z)-2-({4-[4-(dimethylcarbamoyl)piperidin-1-yl]-1-methyl-1H-pyrrolo[2,3-b]pyridin-3-yl}methylidene)-3-oxo-2,3-dihydro-1-benzofuran-5-yl]carbamate], the pIC50 at mTOR (setting [1]) was 7.18; on PI3Kγ, 5.06; on PI3Kα it was 5.70.

In the case of `Cn1cc(/C=C2\Oc3ccc(NC(=O)Nc4ccccc4)cc3C2=O)c2c(N3CC4CCC(C3)O4)ccnc21` [Compound 172, 1-[(2Z)-2-{[1-methyl-4-(8-oxa-3-azabicyclo[3.2.1]oct-3-yl)-1H-pyrrolo[2,3-b]pyridin-3-yl]methylidene}-3-oxo-2,3-dihydro-1-benzofuran-5-yl]-3-phenylurea], the negative-log IC50 (pIC50) was 6.84 at mTOR (setting [1]), 5.95 at PI3Kγ and 6.30 at PI3Kα.

On to `COCCN(C)C(=O)c1ccc(-c2ccnc3c2c(/C=C2\Oc4cccc(O)c4C2=O)cn3C)cc1` [Compound 175, 4-{3-[(Z)-(4-hydroxy-3-oxo-1-benzofuran-2(3H)-ylidene)methyl]-1-methyl-1H-pyrrolo[2,3-b]pyridin-4-yl}-N-(2-methoxyethyl)-N-methylbenzamide], for which the pIC50 on mTOR (setting [1]) is 9.05; at PI3Kγ, 6.82; at PI3Kα, 7.14.
